This passage reports T/C results from PubChem BioAssay AID256 (DTP/NCI, 2004).

The assay deals with CD2F1 mice, L1210 leukemia ip, survival T/C. Nature of the assay: NCI In Vivo Anticancer Drug Screen. Data for tumor model L1210 Leukemia (intraperitoneal) in CD2F1 (CDF1) mice. The conditions noted are these: higher = longer survival. In a few lines:
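Implant tumor; dose compound or vehicle; measure endpoint in both groups; report treated divided by control.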

The mark [1] stands for this setting: endpoint: mean survival time, dose: 100.0 mg/kg/injection, schedule: Q04DX003 (ip), vehicle: saline with Tween-80.
Setting [2] is: endpoint: mean survival time, dose: 200.0 mg/kg/injection, schedule: Q04DX003 (ip), vehicle: saline with Tween-80.
Where [3] appears, read: endpoint: mean survival time, dose: 400.0 mg/kg/injection, schedule: Q04DX003 (ip), vehicle: saline with Tween-80.
The mark [4] stands for this setting: endpoint: mean survival time, dose: 75.0 mg/kg/injection, schedule: Q01DX001 (ip), vehicle: saline.
Where [5] appears, read: endpoint: mean survival time, dose: 150.0 mg/kg/injection, schedule: Q01DX001 (ip), vehicle: saline.
Setting [6] is: endpoint: mean survival time, dose: 50.0 mg/kg/injection, schedule: Q01DX009 (ip), vehicle: Klucel (hydroxypropylcellulose) (HPC).
The mark [7] stands for this setting: endpoint: mean survival time, dose: 100.0 mg/kg/injection, schedule: Q01DX009 (ip), vehicle: Klucel (hydroxypropylcellulose) (HPC).
[8] abbreviates: endpoint: mean survival time, dose: 200.0 mg/kg/injection, schedule: Q01DX009 (ip), vehicle: Klucel (hydroxypropylcellulose) (HPC).
The mark [9] stands for this setting: endpoint: mean survival time, dose: 400.0 mg/kg/injection, schedule: Q01DX009 (ip), vehicle: Klucel (hydroxypropylcellulose) (HPC).
The mark [10] stands for this setting: endpoint: mean survival time, dose: 50.0 mg/kg/injection, schedule: Q01DX009 (ip), vehicle: saline with Tween-80.
Where [11] appears, read: endpoint: mean survival time, dose: 100.0 mg/kg/injection, schedule: Q01DX009 (ip), vehicle: saline with Tween-80.
The mark [12] stands for this setting: endpoint: mean survival time, dose: 200.0 mg/kg/injection, schedule: Q01DX009 (ip), vehicle: saline with Tween-80.

Structures are written as SMILES. Where “and” joins values, the source holds several entries; their conditions need not be identical. Equal values may be shown once. Inconclusive results and toxic doses are left out.

In the case of `CC(C)C1NC(=O)C2CCCN2C1=O` (stereo not drawn), the T/C was 98 % of control (endpoint: mean survival time, dose: 100.0 mg/kg/injection, schedule: Q01DX009 (ip), vehicle: saline sonified); 93 % of control (endpoint: mean survival time, dose: 200.0 mg/kg/injection, schedule: Q01DX009 (ip), vehicle: saline sonified); 96 % of control (endpoint: mean survival time, dose: 400.0 mg/kg/injection, schedule: Q01DX009 (ip), vehicle: saline sonified).
Take `O=C(O)C1CC1c1ccccc1` (stereo not drawn): the T/C under setting [1] is 95 % of control, the T/C under setting [2] is 103 % of control and the T/C under setting [3] was 100 % of control.
Take `CCCC1(CC(C)CC)C(=O)NC(=O)NC1=O` (stereo not drawn) (tested in a mixture with another compound): the T/C under setting [4] is 93 % of control; the T/C under setting [5] was 100 % of control; the T/C (endpoint: mean survival time, dose: 300.0 mg/kg/injection, schedule: Q01DX001 (ip), vehicle: saline) is 104 % of control.
In the case of `CC(=O)N(C)N(Cc1ccc(C#N)cc1)C(C)=O`, the T/C (endpoint: mean survival time, dose: 25.0 mg/kg/injection, schedule: Q01DX009 (ip), vehicle: Klucel (hydroxypropylcellulose) (HPC)) is 97 % of control; the T/C under setting [6] is 93 % of control; the T/C under setting [7] was 97 % of control; the T/C under setting [8] was 97 % of control; the T/C under setting [9] was 98 % of control.
On to `Cc1cc2nc(CN)[nH]c2cc1C`, for which the T/C is 98 % of control (endpoint: mean survival time, dose: 100.0 mg/kg/injection, schedule: Q04DX003 (ip), vehicle: saline) and 95 % of control (endpoint: mean survival time, dose: 200.0 mg/kg/injection, schedule: Q04DX003 (ip), vehicle: saline).
`CN(C)CCNC1=C(Cl)C(=O)c2ccccc2C1=O`: the T/C by setting is: (endpoint: mean survival time, dose: 6.25 mg/kg/injection, schedule: Q04DX003 (ip), vehicle: saline with Tween-80) 97 % of control; (endpoint: mean survival time, dose: 12.5 mg/kg/injection, schedule: Q04DX003 (ip), vehicle: saline with Tween-80) 101 % of control; (endpoint: mean survival time, dose: 25.0 mg/kg/injection, schedule: Q04DX003 (ip), vehicle: saline with Tween-80) 91 % of control and 102 % of control.
In the case of `O=[N+]([O-])c1ccc(S(=O)(=O)c2ccc([N+](=O)[O-])cc2)cc1`, the T/C under setting [10] was 93 % of control, the T/C under setting [11] was 93 % of control and the T/C under setting [12] is 93 % of control.
Regarding `CC(=O)OC1C(O)C(OC(=O)c2ccccc2)C(OC(C)=O)C(OC(C)=O)C1OC(C)=O` (stereo not drawn), the T/C under setting [8] was 91 % of control and the T/C under setting [9] was 88 % of control.
On to `O=C(O)c1cccc(C(=O)O)c1`, for which the T/C is, setting by setting: under setting [1], 95 % of control; under setting [2], 102 % of control; under setting [3], 102 % of control.
As for `CCNC(=S)NN`, under “endpoint: mean survival time, dose: 12.5 mg/kg/injection, schedule: Q01DX009 (ip), vehicle: saline with Tween-80”, the T/C was 100 % of control.
For the molecule `Nc1nc(F)nc2c1ncn2C1CC(O)C(CO)O1` (stereo not drawn), the T/C runs as follows: under setting [4], 105 % of control; (endpoint: mean survival time, dose: 100.0 mg/kg/injection, schedule: Q01DX001 (ip), vehicle: other) 113 % of control; under setting [5], 109 % of control; (endpoint: mean survival time, dose: 200.0 mg/kg/injection, schedule: Q01DX001 (ip), vehicle: other) 110 % of control; (endpoint: mean survival time, dose: 400.0 mg/kg/injection, schedule: Q01DX001 (ip), vehicle: other) 107 % of control; (endpoint: median survival time, dose: 25.0 mg/kg/injection, schedule: Q03HX024 (ip), vehicle: saline with Tween-80) 219 % of control. Moreover, the T/C is, setting by setting: (endpoint: median survival time, dose: 30.0 mg/kg/injection, schedule: Q03HX024 (ip), vehicle: saline with Tween-80) 234 % of control; (endpoint: median survival time, dose: 30.0 mg/kg/injection, schedule: Q03HX024 (ip), vehicle: saline) 211 % of control; (endpoint: median survival time, dose: 35.0 mg/kg/injection, schedule: Q03HX024 (ip), vehicle: saline with Tween-80) 250 % of control; (endpoint: median survival time, dose: 40.0 mg/kg/injection, schedule: Q03HX024 (ip), vehicle: saline with Tween-80) 158 % of control; (endpoint: median survival time, dose: 40.0 mg/kg/injection, schedule: Q03HX024 (ip), vehicle: saline) 227 % of control.
Turning to `CCC(C(C)N1CC(=O)NC(=O)C1)N1CC(=O)NC(=O)C1` (stereo not drawn), the T/C is, setting by setting: (endpoint: mean survival time, dose: 0.06 mg/kg/injection, schedule: Q01DX009 (ip), vehicle: Klucel (hydroxypropylcellulose) (HPC)) 109 % of control; (endpoint: mean survival time, dose: 0.13 mg/kg/injection, schedule: Q01DX009 (ip), vehicle: Klucel (hydroxypropylcellulose) (HPC)) 114 % of control; (endpoint: mean survival time, dose: 0.5 mg/kg/injection, schedule: Q04DX003 (ip), vehicle: Klucel (hydroxypropylcellulose) (HPC)) 119 % of control; (endpoint: mean survival time, dose: 1.0 mg/kg/injection, schedule: Q01DX009 (ip), vehicle: Klucel (hydroxypropylcellulose) (HPC)) 120 % of control; (endpoint: mean survival time, dose: 1.0 mg/kg/injection, schedule: Q04DX003 (ip), vehicle: Klucel (hydroxypropylcellulose) (HPC)) 154 % of control; (endpoint: mean survival time, dose: 2.0 mg/kg/injection, schedule: Q01DX009 (ip), vehicle: Klucel (hydroxypropylcellulose) (HPC)) 89 % of control. Besides, the T/C was 178 % of control (endpoint: mean survival time, dose: 2.0 mg/kg/injection, schedule: Q04DX003 (ip), vehicle: Klucel (hydroxypropylcellulose) (HPC)); 167 % of control (endpoint: mean survival time, dose: 4.0 mg/kg/injection, schedule: Q04DX003 (ip), vehicle: Klucel (hydroxypropylcellulose) (HPC)); 100 % of control (endpoint: mean survival time, dose: 8.0 mg/kg/injection, schedule: Q04DX003 (ip), vehicle: Klucel (hydroxypropylcellulose) (HPC)).
In the case of `O=C(NCCCl)NC1CCSc2ccccc21` (stereo not drawn), the T/C is 95 % of control under setting [10], 91 % of control under setting [11] and 91 % of control under setting [12].
With `Cc1[nH]c(=S)[nH]c(=O)c1CC(C)O` (stereo not drawn), the T/C runs as follows: under setting [11], 97 % of control; under setting [12], 90 % of control; (endpoint: mean survival time, dose: 400.0 mg/kg/injection, schedule: Q01DX009 (ip), vehicle: saline with Tween-80) 98 % of control.
On to `COc1cc2c(c(OC)c1OC)-c1ccc(SC)c(=O)cc1C(NC(=S)NC1OC(COC(C)=O)C(OC(C)=O)C(OC(C)=O)C1OC(C)=O)CC2` (stereo not drawn), for which the T/C reads like this: under setting [6], 86 % of control; under setting [7], 89 % of control; under setting [8], 101 % of control.
With `COc1cccc2c1C(CO)N1C(C#N)C3CC(C(=O)O)C(C1C2)N3C` (stereo not drawn), the T/C by setting is: (endpoint: median survival time, dose: 3.12 mg/kg/injection, schedule: Q01DX005 (ip), vehicle: saline) 112 % of control; (endpoint: median survival time, dose: 6.25 mg/kg/injection, schedule: Q01DX005 (ip), vehicle: saline) 110 % of control; (endpoint: median survival time, dose: 9.0 mg/kg/injection, schedule: Q01DX005 (ip), vehicle: suspension in saline) 120 % of control and 111 % of control; (endpoint: median survival time, dose: 12.5 mg/kg/injection, schedule: Q01DX005 (ip), vehicle: saline) 112 % of control; (endpoint: median survival time, dose: 15.0 mg/kg/injection, schedule: Q01DX005 (ip), vehicle: suspension in saline) 124 % of control; (endpoint: median survival time, dose: 41.67 mg/kg/injection, schedule: Q01DX005 (ip), vehicle: suspension in saline) 87 % of control. Moreover, under “endpoint: median survival time, dose: 50.0 mg/kg/injection, schedule: Q01DX005 (ip), vehicle: saline”, the T/C was 89 % of control.
On to `CC(=O)SCCC(=O)O`, for which the T/C runs as follows: (endpoint: mean survival time, dose: 25.0 mg/kg/injection, schedule: Q04DX003 (ip), vehicle: saline) 96 % of control; (endpoint: mean survival time, dose: 50.0 mg/kg/injection, schedule: Q04DX003 (ip), vehicle: saline) 104 % of control.
`Nc1cnc(/C=C/c2ccccc2)nc1`: the T/C by setting is: (endpoint: mean survival time, dose: 75.0 mg/kg/injection, schedule: Q01DX001 (ip), vehicle: other) 104 % of control; (endpoint: mean survival time, dose: 150.0 mg/kg/injection, schedule: Q01DX001 (ip), vehicle: other) 102 % of control.
Take `CC(SC(=S)N(C)C)C(=O)O` (stereo not drawn): the T/C was 96 % of control under setting [1], 101 % of control under setting [2] and 101 % of control under setting [3].
Turning to `Cc1cc(=O)n(Cc2ccccc2)n1-c1ccccc1`, the T/C reads like this: (endpoint: mean survival time, dose: 25.0 mg/kg/injection, schedule: Q04DX002 (ip), vehicle: saline with Tween-80) 97 % of control; (endpoint: mean survival time, dose: 50.0 mg/kg/injection, schedule: Q04DX002 (ip), vehicle: saline with Tween-80) 100 % of control; (endpoint: mean survival time, dose: 100.0 mg/kg/injection, schedule: Q04DX002 (ip), vehicle: saline with Tween-80) 87 % of control; under setting [1], 98 % of control.
With `CC(C)c1ccc(C(O)C2CC2)cc1` (stereo not drawn), the T/C (endpoint: mean survival time, dose: 50.0 mg/kg/injection, schedule: Q01DX009 (ip), vehicle: saline) is 100 % of control; the T/C (endpoint: mean survival time, dose: 100.0 mg/kg/injection, schedule: Q01DX009 (ip), vehicle: saline) was 100 % of control; the T/C (endpoint: mean survival time, dose: 200.0 mg/kg/injection, schedule: Q01DX009 (ip), vehicle: saline) is 96 % of control.
